Experimental data as given in patent publication US10760110B2, “Antibiotic testing and screening system” (priority 2017, dated 2020).
≈ marks a conversion by molar mass, not a printed value. Like-named read-outs stand apart in the source and are kept apart here.

Legend:
Conditions in all cases: Klebsiella pneumoniae
[1] = tested on: K. pneumoniae NVT1001 and its ΔompK35/36 and/or ΔramR mutants; test: Etest MIC, OmpK35/36 loss and AcrAB-TolC overexpression (ΔramR) strains (Table 6); type: cell-based, Klebsiella pneumoniae
Outline: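 Etest strips per kit instructions; off-scale intermediate readings rounded upward to the nearest two-fold concentration. Broth microdilution (CLSI) for ceftazidime, cefotaxime only. Breakpoints: CLSI 2017 generally, CLSI 2015 for cephalothin, EUCAST 2017 for moxifloxacin.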

[2] = tested on: K. pneumoniae NVT1001 ΔramRΔompK35/36 mutant and its revertants; test: Etest MIC, ΔramRΔompK35/36 mutant and its revertants (Table 7); type: cell-based
[3] = tested on: K. pneumoniae NVT1001 strains with carbapenemase plasmids; test: Etest MIC of β-lactams, OmpK35/36 loss, ΔramR and/or carbapenemase (Table 9); type: cell-based, Klebsiella pneumoniae
Protocol: DNA fragments of the resistance genes along with their flanking regions were amplified from clinical plasmids via PCR with specific primer pairs. The resulting PCR fragments were digested and then cloned into the plasmid pACYC177 or pACYC184. The resulting plasmids were then transformed into K. pneumoniae strain NVT1001 via electroporation. The recombinant bacteria were plated onto LB agar plates containing kanamycin (50 mg/L) or chloramphenicol (50 mg/L), and the presence of the cloned gene was confirmed via PCR and DNA sequencing.
The MICs of antibiotics were determined using the Etest (Biodisk AB, Sweden) according to the manufacturer's instructions. The MICs from the Etest, which fall between standard two-fold dilutions, were rounded up to the next highest two-fold value. The MICs of ceftazidime and cefotaxime against K. pneumoniae NVT1001 harbouring the pACYC177 plasmid with blaOXA-48 were further determined using a broth microdilution test according to the recommendations of the CLSI,^25 and the results were interpreted according to the breakpoints established by the CLSI in 2017.^25 Meanwhile, due to the lack of CLSI breakpoints in 2016 and 2017, the results for cephalothin were interpreted according to the breakpoints established by the CLSI in 2015,^26 and the results for moxifloxacin were interpreted according to the breakpoints established by the EUCAST in 2017.^27

## C[C@@H](O)[C@H]1C(=O)N2C(C(=O)O)=C(S[C@@H]3CN[C@H](CNS(N)(=O)=O)C3)[C@H](C)[C@H]12 [Doripenem]
[1]; WT, NVT1001, read-out: MIC
  MIC: 0.06 µg/mL (≈ 0.143 µM)
[1]; Δ35, ΔompK35 mutant
  MIC: 0.06 µg/mL (≈ 0.143 µM)
[1]; Δ35/36, ΔompK35/36 mutant
  MIC: 0.125 µg/mL (≈ 0.297 µM)
[1]; Δ36, ΔompK36 mutant
  MIC: 0.06 µg/mL (≈ 0.143 µM)
[1]; ΔramR mutant
  MIC: 0.03 µg/mL (≈ 0.0713 µM)
[1]; ΔramRΔ35, ΔramRΔompK35 mutant
  MIC: 0.03 µg/mL (≈ 0.0713 µM)
[1]; ΔramRΔ35/36, ΔramRΔompK35/36 mutant
  MIC: 0.5 µg/mL (≈ 1.19 µM)
[1]; ΔramRΔ36, ΔramRΔompK36 mutant
  MIC: 0.25 µg/mL (≈ 0.595 µM)
[2]; ΔramRΔompK35/36::ompK35/36 revertant
  MIC: 0.06 µg/mL
[2]; ΔramRΔompK35/36::ompK35 revertant
  MIC: 0.25 µg/mL
[2]; ΔramRΔompK35/36::ompK36 revertant
  MIC: 0.06 µg/mL
[2]; ΔramRΔompK35/36::ramR revertant
  MIC: 0.25 µg/mL
[2]; ΔramRΔompK35/36::ramR::ompK35/36 revertant
  MIC: 0.06 µg/mL
[2]; ΔramRΔompK35/36::ramR::ompK35 revertant
  MIC: 0.125 µg/mL
[2]; ΔramRΔompK35/36::ramR::ompK36 revertant
  MIC: 0.125 µg/mL
[2]; ΔramRΔompK35/36 mutant
  MIC: 0.5 µg/mL
[3]; IMP-8 on pACYC177, WT (NVT1001), read-out: MIC
  MIC: 1 µg/mL
[3]; IMP-8 on pACYC177, Δ35 (ΔompK35 mutant)
  MIC: 2 µg/mL
[3]; IMP-8 on pACYC177, Δ35/36 (ΔompK35/36 mutant)
  MIC: > 32 µg/mL
[3]; IMP-8 on pACYC177, Δ36 (ΔompK36 mutant)
  MIC: 2 µg/mL
[3]; IMP-8 on pACYC177, ΔramR mutant
  MIC: 1 µg/mL
[3]; IMP-8 on pACYC177, ΔramRΔ35 (ΔramRΔompK35 mutant)
  MIC: 2 µg/mL
[3]; IMP-8 on pACYC177, ΔramRΔ35/36 (ΔramRΔompK35/36 mutant)
  MIC: 32 µg/mL
[3]; IMP-8 on pACYC177, ΔramRΔ36 (ΔramRΔompK36 mutant)
  MIC: 32 µg/mL
[3]; KPC-2 on pACYC177, WT (NVT1001), read-out: MIC
  MIC: 16 µg/mL
[3]; KPC-2 on pACYC177, Δ35 (ΔompK35 mutant)
  MIC: 32 µg/mL
[3]; KPC-2 on pACYC177, Δ35/36 (ΔompK35/36 mutant)
  MIC: > 32 µg/mL
[3]; KPC-2 on pACYC177, Δ36 (ΔompK36 mutant)
  MIC: > 32 µg/mL
[3]; KPC-2 on pACYC177, ΔramR mutant
  MIC: 16 µg/mL
[3]; KPC-2 on pACYC177, ΔramRΔ35 (ΔramRΔompK35 mutant)
  MIC: 32 µg/mL
[3]; KPC-2 on pACYC177, ΔramRΔ35/36 (ΔramRΔompK35/36 mutant)
  MIC: > 32 µg/mL
[3]; KPC-2 on pACYC177, ΔramRΔ36 (ΔramRΔompK36 mutant)
  MIC: > 32 µg/mL
[3]; KPC-3 on pACYC177, WT (NVT1001), read-out: MIC
  MIC: 8 µg/mL
[3]; KPC-3 on pACYC177, Δ35 (ΔompK35 mutant)
  MIC: 32 µg/mL
[3]; KPC-3 on pACYC177, Δ35/36 (ΔompK35/36 mutant)
  MIC: > 32 µg/mL
[3]; KPC-3 on pACYC177, Δ36 (ΔompK36 mutant)
  MIC: > 32 µg/mL
[3]; KPC-3 on pACYC177, ΔramR mutant
  MIC: 16 µg/mL
[3]; KPC-3 on pACYC177, ΔramRΔ35 (ΔramRΔompK35 mutant)
  MIC: 32 µg/mL
[3]; KPC-3 on pACYC177, ΔramRΔ35/36 (ΔramRΔompK35/36 mutant)
  MIC: > 32 µg/mL
[3]; KPC-3 on pACYC177, ΔramRΔ36 (ΔramRΔompK36 mutant)
  MIC: > 32 µg/mL
[3]; NDM-1 on pACYC177, WT (NVT1001), read-out: MIC
  MIC: 16 µg/mL
[3]; NDM-1 on pACYC177, Δ35 (ΔompK35 mutant)
  MIC: 32 µg/mL
[3]; NDM-1 on pACYC177, Δ35/36 (ΔompK35/36 mutant)
  MIC: > 32 µg/mL
[3]; NDM-1 on pACYC177, Δ36 (ΔompK36 mutant)
  MIC: > 32 µg/mL
[3]; NDM-1 on pACYC177, ΔramR mutant
  MIC: 32 µg/mL
[3]; NDM-1 on pACYC177, ΔramRΔ35 (ΔramRΔompK35 mutant)
  MIC: 32 µg/mL
[3]; NDM-1 on pACYC177, ΔramRΔ35/36 (ΔramRΔompK35/36 mutant)
  MIC: > 32 µg/mL
[3]; NDM-1 on pACYC177, ΔramRΔ36 (ΔramRΔompK36 mutant)
  MIC: > 32 µg/mL
[3]; OXA-48 on pACYC177, WT (NVT1001), read-out: MIC
  MIC: 2 µg/mL
[3]; OXA-48 on pACYC177, Δ35 (ΔompK35 mutant)
  MIC: 2 µg/mL
[3]; OXA-48 on pACYC177, Δ35/36 (ΔompK35/36 mutant)
  MIC: > 32 µg/mL
[3]; OXA-48 on pACYC177, Δ36 (ΔompK36 mutant)
  MIC: 8 µg/mL
[3]; OXA-48 on pACYC177, ΔramR mutant
  MIC: 2 µg/mL
[3]; OXA-48 on pACYC177, ΔramRΔ35 (ΔramRΔompK35 mutant)
  MIC: 1 µg/mL
[3]; OXA-48 on pACYC177, ΔramRΔ35/36 (ΔramRΔompK35/36 mutant)
  MIC: > 32 µg/mL
[3]; OXA-48 on pACYC177, ΔramRΔ36 (ΔramRΔompK36 mutant)
  MIC: > 32 µg/mL
[3]; VIM-1 on pACYC177, WT (NVT1001), read-out: MIC
  MIC: 16 µg/mL
[3]; VIM-1 on pACYC177, Δ35 (ΔompK35 mutant)
  MIC: 32 µg/mL
[3]; VIM-1 on pACYC177, Δ35/36 (ΔompK35/36 mutant)
  MIC: > 32 µg/mL
[3]; VIM-1 on pACYC177, Δ36 (ΔompK36 mutant)
  MIC: > 32 µg/mL
[3]; VIM-1 on pACYC177, ΔramR mutant
  MIC: 32 µg/mL
[3]; VIM-1 on pACYC177, ΔramRΔ35 (ΔramRΔompK35 mutant)
  MIC: 32 µg/mL
[3]; VIM-1 on pACYC177, ΔramRΔ35/36 (ΔramRΔompK35/36 mutant)
  MIC: > 32 µg/mL
[3]; VIM-1 on pACYC177, ΔramRΔ36 (ΔramRΔompK36 mutant)
  MIC: > 32 µg/mL
[3]; no supplemental plasmid, WT (NVT1001), read-out: MIC
  MIC: 0.06 µg/mL
[3]; no supplemental plasmid, Δ35 (ΔompK35 mutant)
  MIC: 0.06 µg/mL
[3]; no supplemental plasmid, Δ35/36 (ΔompK35/36 mutant)
  MIC: 0.125 µg/mL
[3]; no supplemental plasmid, Δ36 (ΔompK36 mutant)
  MIC: 0.06 µg/mL
[3]; no supplemental plasmid, ΔramR mutant
  MIC: 0.03 µg/mL
[3]; no supplemental plasmid, ΔramRΔ35 (ΔramRΔompK35 mutant)
  MIC: 0.03 µg/mL
[3]; no supplemental plasmid, ΔramRΔ35/36 (ΔramRΔompK35/36 mutant)
  MIC: 0.5 µg/mL
[3]; no supplemental plasmid, ΔramRΔ36 (ΔramRΔompK36 mutant)
  MIC: 0.25 µg/mL
